Measurements as given in BindingDB's records for doi:10.1016/j.bmcl.2004.10.084 (University of Illinois At Chicago, 2005).

Target: Beta-secretase 1 (Homo sapiens, UniProt P56817)
Experiment: Enzyme Inhibition Measurements
Details: pH 4.5; 37 °C
Protocol: Enzyme activities were assayed by monitoring the hydrolysis of substrate in the presence or absence of inhibitor compounds. The hydrolysis was recorded as the increase in fluorescence intensity over a 10 min time period. […] The Ki was calculated by using Ki = IC50/ (1 + [S]/Km), and a Km value determined according to Michaelis-Menten.

Sequence of Beta-secretase 1 (P56817 whole entry): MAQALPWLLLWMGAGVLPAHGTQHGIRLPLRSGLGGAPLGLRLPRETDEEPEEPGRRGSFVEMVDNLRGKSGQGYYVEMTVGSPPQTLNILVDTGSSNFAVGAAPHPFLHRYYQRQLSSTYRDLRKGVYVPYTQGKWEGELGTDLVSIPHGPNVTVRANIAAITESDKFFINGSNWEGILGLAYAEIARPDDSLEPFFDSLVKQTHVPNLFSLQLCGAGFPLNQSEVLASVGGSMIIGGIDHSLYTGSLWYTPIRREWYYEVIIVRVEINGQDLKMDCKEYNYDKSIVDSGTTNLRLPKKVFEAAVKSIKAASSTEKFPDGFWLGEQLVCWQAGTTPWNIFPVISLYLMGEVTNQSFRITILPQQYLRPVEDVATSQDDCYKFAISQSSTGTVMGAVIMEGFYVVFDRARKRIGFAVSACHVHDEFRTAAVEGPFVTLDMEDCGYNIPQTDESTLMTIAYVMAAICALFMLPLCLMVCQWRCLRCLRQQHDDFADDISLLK

C=CCNC(=O)C[C@H](NC(=O)[C@@H](NC(=O)OCC=C)C(C)C)C(=O)N[C@@H](CC(C)C)[C@@H](O)C[C@@H](C)C(=O)N[C@H](C(=O)NCc1ccccc1)C(C)C [prop-2-en-1-yl N-[(1S)-1-{[(1S)-1-{[(1R,3S,4S)-1-{[(1S)-1-(benzylcarbamoyl)-2-methylpropyl]carbamoyl}-3-hydroxy-1,6-dimethylheptan-4-yl]carbamoyl}-2-(prop-2-en-1-ylcarbamoyl)ethyl]carbamoyl}-2-methylpropyl]carbamate]
Ki: 26.6 nM
